According to the NIST ThermoML archive (doi:10.1021/je900550v):
Numbers after ± are expanded uncertainties.

Details: 101.33 kPa, Liquid; for speed of sound: Sing-around technique in a fixed-path interferometer; for mass density: Vibrating tube method

CC(=O)[O-].C[NH2+]CCO [N-methyl-2-hydroxyethylammonium acetate]
Details	mass density [kg/m3]	speed of sound [m/s]	viscosity [mPa·s]
278.15 K	1112.83 ± 2.2	1848.3 ± 2.2	–
278.4 K	1112.68 ± 2.2	1847.6 ± 2.2	–
278.65 K	1112.54 ± 2.2	1846.8 ± 2.2	–
278.9 K	1112.38 ± 2.2	1846.1 ± 2.2	–
279.15 K	1112.23 ± 2.2	1845.4 ± 2.2	–
279.4 K	1112.08 ± 2.2	1844.7 ± 2.2	–
279.65 K	1111.93 ± 2.2	1843.9 ± 2.2	–
279.9 K	1111.78 ± 2.2	1843.2 ± 2.2	–
280.15 K	1111.63 ± 2.2	1842.5 ± 2.2	–
280.4 K	1111.48 ± 2.2	1841.8 ± 2.2	–
280.65 K	1111.33 ± 2.2	1841 ± 2.2	–
280.9 K	1111.18 ± 2.2	1840.3 ± 2.2	–
281.15 K	1111.03 ± 2.2	1839.6 ± 2.2	–
281.4 K	1110.88 ± 2.2	1838.9 ± 2.2	–
281.65 K	1110.74 ± 2.2	1838.2 ± 2.2	–
281.9 K	1110.58 ± 2.2	1837.5 ± 2.2	–
282.15 K	1110.43 ± 2.2	1836.8 ± 2.2	–
282.4 K	1110.28 ± 2.2	1836.1 ± 2.2	–
282.65 K	1110.13 ± 2.2	1835.4 ± 2.2	–
282.9 K	1109.98 ± 2.2	1834.7 ± 2.2	–
283.15 K	1109.83 ± 2.2	1834 ± 2.2	–
283.4 K	1109.68 ± 2.2	1833.3 ± 2.2	–
283.65 K	1109.53 ± 2.2	1832.6 ± 2.2	–
283.9 K	1109.38 ± 2.2	1832 ± 2.2	–
284.15 K	1109.22 ± 2.2	1831.3 ± 2.2	–
284.4 K	1109.07 ± 2.2	1830.6 ± 2.2	–
284.65 K	1108.92 ± 2.2	1829.9 ± 2.2	–
284.9 K	1108.77 ± 2.2	1829.2 ± 2.2	–
285.15 K	1108.62 ± 2.2	1828.6 ± 2.2	–
285.4 K	1108.47 ± 2.2	1827.9 ± 2.2	–
285.65 K	1108.32 ± 2.2	1827.2 ± 2.2	–
285.9 K	1108.17 ± 2.2	1826.5 ± 2.2	–
286.15 K	1108.02 ± 2.2	1825.9 ± 2.2	–
286.4 K	1107.86 ± 2.2	1825.2 ± 2.2	–
286.65 K	1107.71 ± 2.2	1824.5 ± 2.2	–
286.9 K	1107.56 ± 2.2	1823.8 ± 2.2	–
287.15 K	1107.41 ± 2.2	1823.2 ± 2.2	–
287.4 K	1107.26 ± 2.2	1822.5 ± 2.2	–
287.65 K	1107.11 ± 2.2	1821.8 ± 2.2	–
287.9 K	1106.95 ± 2.2	1821.2 ± 2.2	–
288.15 K	1106.8 ± 2.2	1820.5 ± 2.2	211.24 ± 21
288.4 K	1106.65 ± 2.2	1819.9 ± 2.2	–
288.65 K	1106.5 ± 2.2	1819.2 ± 2.2	–
288.9 K	1106.35 ± 2.2	1818.6 ± 2.2	–
289.15 K	1106.19 ± 2.2	1817.9 ± 2.2	–
289.4 K	1106.04 ± 2.2	1817.3 ± 2.2	–
289.65 K	1105.89 ± 2.2	1816.6 ± 2.2	–
289.9 K	1105.73 ± 2.2	1816 ± 2.2	–
290.15 K	1105.58 ± 2.2	1815.3 ± 2.2	–
290.4 K	1105.43 ± 2.2	1814.7 ± 2.2	–
290.65 K	1105.28 ± 2.2	1814 ± 2.2	–
290.9 K	1105.13 ± 2.2	1813.4 ± 2.2	–
291.15 K	1104.97 ± 2.2	1812.7 ± 2.2	–
291.4 K	1104.82 ± 2.2	1812.1 ± 2.2	–
291.65 K	1104.67 ± 2.2	1811.4 ± 2.2	–
291.9 K	1104.51 ± 2.2	1810.8 ± 2.2	–
292.15 K	1104.36 ± 2.2	1810.1 ± 2.2	–
292.4 K	1104.21 ± 2.2	1809.5 ± 2.2	–
292.65 K	1104.05 ± 2.2	1808.8 ± 2.2	–
292.9 K	1103.9 ± 2.2	1808.2 ± 2.2	–
293.15 K	–	–	145.8 ± 11
